Assay [1] addresses Recombinant Human NF-Kappab-Inducing Kinase (NIK/MAP3K14) (Homo sapiens, UniProt Q99558). Nature of the assay: Inhibition of auto-phosphorylation of recombinant human NIK/MAP3K14 (AlphaScreen). The conditions noted are these: NIK/MAP3K14 auto-phosphorylation, 5 microM ATP, 1 nM enzyme, 2 h at 25° C.; average of values; read-out: Assay 1 IC50. Type of assay: biochemical. As to the method: Biological Assay 1: Inhibition of Auto-Phosphorylation of Recombinant Human NF-Kappab-Inducing Kinase (NIK/MAP3K14) Activity (AlphaScreen®)
NIK/MAP3K14 auto-phosphorylation activity was measured using the AlphaScreen® ((αscreen) format (Perkin ElmeR). All compounds tested were dissolved in dimethyl sulfoxide (DMSO) and further dilutions were made in assay buffer. Final DMSO concentration was 0.7% (v/v) in assays. Assay buffer was 50 mM Tris pH 7.5 containing 1 mM EGTA (ethylene glycol tetraacetic acid), 1 mM DTT (dithiothreitol), 0.1 mM Na3VO4, 5 mM MgCl2, 0.01% Tween® 20. Assays were carried out in 384 well Proxiplates (Perkin ElmeR). Incubations consisted of compound, 5 microM Adenosine-5′-triphosphate (ATP), and 1 nM NIK/MAP3K14. Incubations were initiated by addition of GST-tagged NIK/MAP3K14 enzyme, carried out for 2 h at 25° C. and terminated by addition of stop buffer containing anti-phospho-IKK Ser176/180 antibody. Protein A Acceptor and Glutathione-donor beads were added before reading using an EnVision® Multilabel Plate Reader (Perkin ElmeR). Signal obtained in the wells was normalized using high (full enzyme activity, 0.7% DMSO) and low controls (no enzyme activity, 0.7% DMSO, no ATP). IC50's were determined by fitting a sigmoidal curve to % inhibition of control versus Log10 compound concentration.
Background: Bead proximity is the source of the signal in Alpha formats.

Assay [2] concerns p-IKKα levels in L363 (NIK translocated multiple myeloma) cells. Nature of the assay: Effect of compounds on p-IKKα levels in L363 cells (AlphaLISA SureFire Ultra). Type of assay: cell-based. The settings on record: Homo sapiens, L-363; L363 cells, BAFF stimulated, MG132, 6 h; average of values; read-out: Assay 2 IC50. The method, then: Biological Assay 2: Effect of Compounds on p-IKKα Levels in L363 (NIK Translocated Multiple Myeloma) Cells
All compounds tested were dissolved and serially diluted in DMSO, 1:3 dilution for 11 points in an Echo compatible plate. 100% DMSO is added to columns 12 and 24 of the plate to serve as high and low signal controls. This compound plate was used to spot 20 nl of compound or DMSO into a Greiner 384 well TC plate (781080). Final DMSO concentration was […] (v/v) in cell assays. Human L363 cells (ATCC) were cultured in RPMI 1640 medium supplemented with GlutaMax, non-essential amino acids, sodium pyruvate and 10% fetal bovine serum. Cells were routinely maintained at densities of 0.2×10^6 cells per ml −2×10^6 cells per ml at 37° C. in a humidified 5% CO2 atmosphere incubator. Cells were passaged twice a week splitting back to obtain the low density. The day before the assay, cells were washed twice in HBSS, resuspended in DMEM+0.5% IgG and protease free BSA (Jackson Immuno Research Laboratories), +/−250 ng/ml recombinant human B-cell activating factor (BAFF/BLyS/TNFSF13B) and incubated overnight at 37° C. in a humidified 5% CO2 atmosphere (bulk stimulation with or without BAFF). The next day, cell concentration was adjusted to 1×10^7 cells/ml in DMEM+/−250 ng/ml BAFF+/−10 uM MG132 and plated at 10 ul/well into compound or DMSO spotted 384 well TC plates. Seeded cells were incubated at 37° C. in a humidified 5% CO2 atmosphere for 6 h. After 6 h, plates were removed from the incubator and cell lysis was achieved by the addition of 2.5 μl 5× lysis buffer containing protease and phosphatase inhibitors, followed by shaking on a plate shaker at room temperature for 15 min. At the end of this incubation, lysed cells were sequentially treated and incubated with acceptor and donor bead mixes according to the manufacturer's protocol for a 1 plate/2-incubation suspension cell assay (AlphaLISA SureFire Ultra p-IKKα (Ser 176/180) Assay Kit (Perkin ElmeR). Plates were read using an EnVision® Multilabel Plate Reader (Perkin ElmeR). Within an experiment, a concentration response curve for each compound was run in duplicate. Signal obtained in the test wells was normalized using high signal (BAFF stimulated cells, DMSO, MG132) and low signal (unstimulated cells, DMSO) controls. To determine the IC50, a sigmoidal curve was fitted to the plot of % inhibition versus Log10 compound concentration.

Some results are limits rather than exact numbers.

Sequence of Recombinant Human NF-Kappab-Inducing Kinase (NIK/MAP3K14) (Q99558 whole entry): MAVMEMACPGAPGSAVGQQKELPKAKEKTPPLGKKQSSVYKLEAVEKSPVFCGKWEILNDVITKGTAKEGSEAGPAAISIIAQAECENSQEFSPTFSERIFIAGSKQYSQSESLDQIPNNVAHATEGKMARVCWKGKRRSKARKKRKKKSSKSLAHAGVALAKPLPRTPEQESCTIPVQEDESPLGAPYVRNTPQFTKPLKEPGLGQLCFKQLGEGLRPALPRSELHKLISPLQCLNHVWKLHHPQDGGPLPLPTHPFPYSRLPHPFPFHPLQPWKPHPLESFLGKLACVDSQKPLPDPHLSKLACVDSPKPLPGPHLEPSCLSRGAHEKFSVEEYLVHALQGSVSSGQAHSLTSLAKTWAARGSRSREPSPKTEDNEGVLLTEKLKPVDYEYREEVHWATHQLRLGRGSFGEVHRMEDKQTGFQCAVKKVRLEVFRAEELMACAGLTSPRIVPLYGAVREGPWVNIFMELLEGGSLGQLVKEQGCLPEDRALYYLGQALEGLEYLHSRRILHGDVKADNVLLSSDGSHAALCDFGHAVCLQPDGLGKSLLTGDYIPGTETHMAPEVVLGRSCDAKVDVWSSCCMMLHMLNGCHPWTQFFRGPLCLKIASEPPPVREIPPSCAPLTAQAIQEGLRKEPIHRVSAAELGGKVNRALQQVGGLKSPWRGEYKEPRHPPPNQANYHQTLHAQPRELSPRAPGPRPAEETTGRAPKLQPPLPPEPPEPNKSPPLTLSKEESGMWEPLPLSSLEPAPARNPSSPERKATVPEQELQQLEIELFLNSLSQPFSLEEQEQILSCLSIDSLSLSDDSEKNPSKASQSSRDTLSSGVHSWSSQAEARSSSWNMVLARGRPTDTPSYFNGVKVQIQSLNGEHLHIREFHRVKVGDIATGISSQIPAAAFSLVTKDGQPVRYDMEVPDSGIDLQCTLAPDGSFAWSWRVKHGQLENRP

What is called IC50 is the point on the concentration scale where inhibition reaches its midpoint. As to `CN1CCC(O)(c2cc(-c3cccc(-c4c[nH]c5ncccc45)c3)on2)C1=O` (racemic) [Example 9, (R,S)-3-(5-(3-(1H-Pyrrolo[2,3-b]pyridin-3-yl)phenyl)isoxazol-3-yl)-3-hydroxy-1-methylpyrrolidin-2-one], the IC50 in assay [1] is 100 to 500 nM; in assay [2], over 501 nM.
As for `CN1CCC(O)(c2cn(-c3cccc(-c4nc(C(N)=O)c5ccccc5n4)c3)cn2)C1=O` (racemic) [Example 19, (R,S)-2-(3-(4-(3-Hydroxy-1-methyl-2-oxopyrrolidin-3-yl)-1H-imidazol-1-yl)phenyl)quinazoline-4-carboxamide], the IC50 was under 100 nM in assay [1] and over 501 nM in assay [2].
In the case of `CN1CCC(O)(c2cc(-c3cccc(-c4nccc(C(N)=O)n4)c3)on2)C1=O` (racemic) [Example 161, (R,S)-2-(3-(3-(3-Hydroxy-1-methyl-2-oxopyrrolidin-3-yl)isoxazol-5-yl)phenyl)pyrimidine-4-carboxamide], the results for the 50% inhibitory concentration (IC50) in assay [1] and in assay [2] were under 100 nM and over 501 nM, respectively.
In the same order, the values of `CN1CCC(O)(c2cc(-c3cccc(-c4ncc5ccnc(N)c5n4)c3)on2)C1=O` (racemic) [Example 165] are under 100 nM and over 501 nM.
Taken in the same sequence, the figures for `CN1CCC(O)(c2cc(-c3cccc(-n4nc(C(N)=O)c5ccccc54)c3)on2)C1=O` (racemic) [Example 167, (R,S)-1-(3-(3-(3-Hydroxy-1-methyl-2-oxopyrrolidin-3-yl)isoxazol-5-yl)phenyl)-1H-indazole-3-carboxamide] were under 100 nM and 100 to 500 nM.
As for `CN1CCC(O)(c2cc(-c3cccc(Nc4nc5c(N)ncnc5s4)c3)on2)C1=O` (racemic) [Example 176, (R,S)-3-(5-(3-((7-Aminothiazolo[5,4-d]pyrimidin-2-yl)amino)phenyl)isoxazol-3-yl)-3-hydroxy-1-methylpyrrolidin-2-one], the concentration for half-maximal inhibition (IC50) in assay [1] and in assay [2] was over 501 nM each time.
On to `CN1CC[C@@](O)(c2cc(C3CCCN(c4ccc5ncnc(N)c5n4)C3)no2)C1=O` (mixture of isomers) [Example 201, (3R)-3-(3-(1-(4-Aminopyrido[3,2-d]pyrimidin-6-yl)piperidin-3-yl)isoxazol-5-yl)-3-hydroxy-1-methylpyrrolidin-2-one], for which the concentration for half-maximal inhibition (IC50) in assay [1] is under 100 nM; in assay [2] it was over 501 nM.
Taken in the same sequence, the figures for `CN1CC[C@](O)(c2ncc(-c3cccc(-c4cccc(C(N)=O)n4)c3)s2)C1=O` (single isomer, unassigned) [Example 28] were 100 to 500 nM and over 501 nM.
`CN1CC[C@@](O)(c2cnn(-c3cccc(-c4cccc(C(N)=O)n4)c3)c2)C1=O` (single isomer, unassigned) [Example 29]: the half-maximal inhibitory concentration (IC50) in assay [1] and in assay [2] was over 501 nM each time.
On to `CN1CC[C@@](O)(c2cc(-c3cccc(-c4cccc(C(N)=O)n4)c3)n(C)n2)C1=O` (single isomer, unassigned) [Example 30], for which the IC50 in assay [1] and in assay [2] was over 501 nM throughout.
Take `CN1CC[C@@](O)(c2cc(-c3cccc(-c4cccc(C(N)=O)n4)c3)[nH]n2)C1=O` (single isomer, unassigned) [Example 31]: the IC50 in assay [1] is 100 to 500 nM; in assay [2], over 501 nM.
In the same order, the values of `[2H]c1nc(N)c2nc(-c3cccc(-c4cnc([C@@]5(O)CCN(C)C5=O)s4)c3)ccc2n1` (single isomer, unassigned) [Example 32] are under 100 nM and over 501 nM.
Taken in the same sequence, the figures for `[2H]c1nc(N)c2nc(-c3cccc(-c4nc([C@]5(O)CCN(C)C5=O)cs4)c3)ccc2n1` (single isomer, unassigned) [Example 33] were over 501 nM and over 501 nM.
Taken in the same sequence, the figures for `[2H]c1nc(N)c2nc(-c3cccc(-c4n[nH]c([C@]5(O)CCN(C)C5=O)n4)c3)ccc2n1` (single isomer, unassigned) [Example 34] were over 501 nM and over 501 nM.
With `[2H]c1nc(N)c2nc(-c3cccc(-c4cc([C@@]5(O)CCN(C)C5=O)n[nH]4)c3)ccc2n1` (single isomer, unassigned) [Example 37], the 50% inhibitory concentration (IC50) in assay [1] and in assay [2] was over 501 nM each time.
Regarding `[2H]c1nc(N)c2nc(-c3cccc(-c4cc([C@]5(O)CCN(C)C5=O)n[nH]4)c3)ccc2n1` (single isomer, unassigned) [Example 38], the half-maximal inhibitory concentration (IC50) is under 100 nM in assay [1] and over 501 nM in assay [2].
Taken in the same sequence, the figures for `[2H]c1nc(N)c2nc(-c3cccc(-c4ncc([C@]5(O)CCN(C)C5=O)o4)c3)ccc2n1` (single isomer, unassigned) [Example 39] were over 501 nM and over 501 nM.
As to `[2H]c1nc(N)c2nc(-c3cccc(-c4ncc([C@@]5(O)CCN(C)C5=O)o4)c3)ccc2n1` (single isomer, unassigned) [Example 40], the IC50 in assay [1] and in assay [2] was over 501 nM in each case.
With `[2H]c1nc(N)c2nc(-c3cccc(-c4nc([C@]5(O)CCN(C)C5=O)co4)c3)ccc2n1` (single isomer, unassigned) [Example 41], the IC50 in assay [1] and in assay [2] was over 501 nM in each case.
Take `[2H]c1nc(N)c2nc(-c3cccc(-c4cc([C@]5(O)CCN(C)C5=O)nn4C)c3)ccc2n1` (single isomer, unassigned) [Example 43]: the 50% inhibitory concentration (IC50) in assay [1] was 100 to 500 nM; in assay [2] it was over 501 nM.
In the same order, the values of `[2H]c1nc(N)c2nc(-c3cccc(-c4cc([C@@]5(O)CCN(C)C5=O)nn4C)c3)ccc2n1` (single isomer, unassigned) [Example 44] are over 501 nM and over 501 nM.
Taken in the same sequence, the figures for `Cc1cc(N2CCC[C@@H](c3cc([C@]4(O)CCN(C)C4=O)on3)C2)nc2c(N)ncnc12` (single isomer, unassigned) [Example 199] were under 100 nM and over 501 nM.
Taken in the same sequence, the figures for `Cc1cc(N2CCC[C@H](c3cc([C@]4(O)CCN(C)C4=O)on3)C2)nc2c(N)ncnc12` (single isomer, unassigned) [Example 200] were under 100 nM and over 501 nM.
As to `CN1CC[C@@](O)(c2cc([C@@H]3CCCN(c4ccc5ncnc(N)c5n4)C3)no2)C1=O` (single isomer, unassigned) [Example 202], the IC50 in assay [1] is under 100 nM; in assay [2] it was over 501 nM.
In the same order, the values of `CN1CC[C@@](O)(c2cc([C@H]3CCCN(c4ccc5ncnc(N)c5n4)C3)no2)C1=O` (single isomer, unassigned) [Example 203] are under 100 nM and over 501 nM.
In the same order, the values of `CN1CC[C@@](O)(c2cc(-c3cccc(-c4sc(Br)nc4C(N)=O)c3)no2)C1=O` (single isomer, unassigned) [Example 214] are over 501 nM and over 501 nM.
In the same order, the values of `CN1CC[C@@](O)(c2cc(-c3cccc(-c4nc5c(c(C(N)=O)n4)C4CCC(C5)O4)c3)[nH]n2)C1=O` (stereo in doubt) [Example 174, (5R,8S)-2-(3-(5-((R)-3-Hydroxy-1-methyl-2-oxopyrrolidin-3-yl)-1H-pyrazol-3-yl)phenyl)-6,7,8,9-tetrahydro-5H-5,8-epoxycyclohepta[d]pyrimidine-4-carboxamide] are 100 to 500 nM and over 501 nM.

The values above are taken from patent US20250282785A1, “PYRROLIDINONE DERIVATIVES AS INHIBITORS OF NF KAPPA B INDUCING KINASE” (priority 2022, published 2025).
